Test system: Klebsiella pneumoniae
Experiment: Antibacterial activity against Klebsiella pneumoniae ATCC 13883 after 24 hrs by broth microdilution method
Format: functional
Details: ATCC 13883, 24 h

| Compound | MIC [µM] |
| --- | --- |
| O=C1NC(=S)NC(=O)C1=Cc1ccccc1[N+](=O)[O-] | > 200 |
| CN1C(=O)C(=CNc2ccccc2C(=O)O)C(=O)N(C)C1=O | > 200 |
| O=C1NC(=S)NC(=O)C1=CNc1ccccc1C(=O)O | > 200 |
| CN1C(=O)C(=Cc2ccccc2[N+](=O)[O-])C(=O)N(C)C1=O | > 200 |
| Nc1ccccc1NC=C1C(=O)NC(=S)NC1=O | > 200 |
| CC(NN)=C1C(=O)NC(=O)NC1=O | > 200 |
| CC(NN)=C1C(=O)N(c2ccccc2)C(=S)N(c2ccccc2)C1=O | > 200 |

Test system: not listed separately
Experiment: Antioxidant activity assessed as DPPH radical scavenging activity at 30 uM after 20 mins by spectrophotometric method relative to control
Format: functional
Details: not given

| Compound | Activity [%] |
| --- | --- |
| O=C1NC(=S)NC(=O)C1=Cc1ccccc1[N+](=O)[O-] | -2.2 |
| CN1C(=O)C(=CNc2ccccc2C(=O)O)C(=O)N(C)C1=O | 3.37 |
| O=C1NC(=S)NC(=O)C1=CNc1ccccc1C(=O)O | -0.56 |
| CN1C(=O)C(=Cc2ccccc2[N+](=O)[O-])C(=O)N(C)C1=O | -0.8 |
| Nc1ccccc1NC=C1C(=O)NC(=S)NC1=O | 6.1 |
| CC(NN)=C1C(=O)NC(=O)NC1=O | 11.6 |
| CC(NN)=C1C(=O)N(c2ccccc2)C(=S)N(c2ccccc2)C1=O | 31.3 |

Test system: Salmonella typhimurium
Experiment: Antibacterial activity against Salmonella typhimurium ATCC 13311 after 24 hrs by broth microdilution method
Format: functional, Salmonella enterica subsp. enterica serovar Typhimurium
Details: Salmonella enterica, ATCC 13311, 24 h

| Compound | MIC [µM] |
| --- | --- |
| O=C1NC(=S)NC(=O)C1=Cc1ccccc1[N+](=O)[O-] | > 200 |
| CN1C(=O)C(=CNc2ccccc2C(=O)O)C(=O)N(C)C1=O | > 200 |
| O=C1NC(=S)NC(=O)C1=CNc1ccccc1C(=O)O | > 200 |
| CN1C(=O)C(=Cc2ccccc2[N+](=O)[O-])C(=O)N(C)C1=O | > 200 |
| Nc1ccccc1NC=C1C(=O)NC(=S)NC1=O | > 200 |
| CC(NN)=C1C(=O)NC(=O)NC1=O | > 200 |
| CC(NN)=C1C(=O)N(c2ccccc2)C(=S)N(c2ccccc2)C1=O | > 200 |

Test system: Staphylococcus aureus
Experiment: Antibacterial activity against Staphylococcus aureus ATCC 25923 after 24 hrs by broth microdilution method
Format: functional
Details: ATCC 25923, 24 h

| Compound | MIC [µM] |
| --- | --- |
| O=C1NC(=S)NC(=O)C1=Cc1ccccc1[N+](=O)[O-] | > 200 |
| CN1C(=O)C(=CNc2ccccc2C(=O)O)C(=O)N(C)C1=O | > 200 |
| O=C1NC(=S)NC(=O)C1=CNc1ccccc1C(=O)O | > 200 |
| CN1C(=O)C(=Cc2ccccc2[N+](=O)[O-])C(=O)N(C)C1=O | > 200 |
| Nc1ccccc1NC=C1C(=O)NC(=S)NC1=O | > 200 |
| CC(NN)=C1C(=O)NC(=O)NC1=O | > 200 |
| CC(NN)=C1C(=O)N(c2ccccc2)C(=S)N(c2ccccc2)C1=O | > 200 |

Test system: Pseudomonas aeruginosa
Experiment: Antibacterial activity against Pseudomonas aeruginosa ATCC 27853 after 24 hrs by broth microdilution method
Format: functional
Details: ATCC 27853, 24 h

| Compound | MIC [µM] |
| --- | --- |
| O=C1NC(=S)NC(=O)C1=Cc1ccccc1[N+](=O)[O-] | > 200 |
| CN1C(=O)C(=CNc2ccccc2C(=O)O)C(=O)N(C)C1=O | > 200 |
| O=C1NC(=S)NC(=O)C1=CNc1ccccc1C(=O)O | > 200 |
| CN1C(=O)C(=Cc2ccccc2[N+](=O)[O-])C(=O)N(C)C1=O | > 200 |
| Nc1ccccc1NC=C1C(=O)NC(=S)NC1=O | > 200 |
| CC(NN)=C1C(=O)NC(=O)NC1=O | > 200 |
| CC(NN)=C1C(=O)N(c2ccccc2)C(=S)N(c2ccccc2)C1=O | > 200 |

Test system: not listed separately
Experiment: Antioxidant activity assessed as DPPH radical scavenging activity at 30 uM after 60 mins by spectrophotometric method relative to control
Format: functional
Details: not given

| Compound | Activity [%] |
| --- | --- |
| O=C1NC(=S)NC(=O)C1=Cc1ccccc1[N+](=O)[O-] | -0.23 |
| CN1C(=O)C(=CNc2ccccc2C(=O)O)C(=O)N(C)C1=O | 1.98 |
| O=C1NC(=S)NC(=O)C1=CNc1ccccc1C(=O)O | -0.57 |
| CN1C(=O)C(=Cc2ccccc2[N+](=O)[O-])C(=O)N(C)C1=O | -1.77 |
| Nc1ccccc1NC=C1C(=O)NC(=S)NC1=O | 17.3 |
| CC(NN)=C1C(=O)NC(=O)NC1=O | 25.4 |
| CC(NN)=C1C(=O)N(c2ccccc2)C(=S)N(c2ccccc2)C1=O | 41.9 |

Test system: Escherichia coli
Experiment: Antibacterial activity against Escherichia coli ATCC 25922 after 24 hrs by broth microdilution method
Format: functional
Details: ATCC 25922, 24 h

| Compound | MIC [µM] |
| --- | --- |
| O=C1NC(=S)NC(=O)C1=Cc1ccccc1[N+](=O)[O-] | > 200 |
| CN1C(=O)C(=CNc2ccccc2C(=O)O)C(=O)N(C)C1=O | > 200 |
| O=C1NC(=S)NC(=O)C1=CNc1ccccc1C(=O)O | > 200 |
| CN1C(=O)C(=Cc2ccccc2[N+](=O)[O-])C(=O)N(C)C1=O | > 200 |
| Nc1ccccc1NC=C1C(=O)NC(=S)NC1=O | > 200 |
| CC(NN)=C1C(=O)NC(=O)NC1=O | > 200 |
| CC(NN)=C1C(=O)N(c2ccccc2)C(=S)N(c2ccccc2)C1=O | > 200 |

Test system: MCF7
Experiment: Antiproliferative activity against human MCF7 cells at 30 uM after 72 hrs by MTT assay relative to control
Format: functional
Details: not given

| Compound | Activity [%] |
| --- | --- |
| O=C1NC(=S)NC(=O)C1=Cc1ccccc1[N+](=O)[O-] | 56.35 |
| CN1C(=O)C(=CNc2ccccc2C(=O)O)C(=O)N(C)C1=O | 50.34 |
| O=C1NC(=S)NC(=O)C1=CNc1ccccc1C(=O)O | 42.53 |
| CN1C(=O)C(=Cc2ccccc2[N+](=O)[O-])C(=O)N(C)C1=O | 54.64 |
| Nc1ccccc1NC=C1C(=O)NC(=S)NC1=O | 64.55 |
| CC(NN)=C1C(=O)NC(=O)NC1=O | 98.27 |
| CC(NN)=C1C(=O)N(c2ccccc2)C(=S)N(c2ccccc2)C1=O | 99.93 |

Test system: Bacillus cereus
Experiment: Antibacterial activity against Bacillus cereus ATCC 1178 after 24 hrs by broth microdilution method
Format: functional
Details: ATCC 1178, 24 h

| Compound | MIC [µM] |
| --- | --- |
| O=C1NC(=S)NC(=O)C1=Cc1ccccc1[N+](=O)[O-] | > 200 |
| CN1C(=O)C(=CNc2ccccc2C(=O)O)C(=O)N(C)C1=O | > 200 |
| O=C1NC(=S)NC(=O)C1=CNc1ccccc1C(=O)O | > 200 |
| CN1C(=O)C(=Cc2ccccc2[N+](=O)[O-])C(=O)N(C)C1=O | > 200 |
| Nc1ccccc1NC=C1C(=O)NC(=S)NC1=O | > 200 |
| CC(NN)=C1C(=O)NC(=O)NC1=O | > 200 |
| CC(NN)=C1C(=O)N(c2ccccc2)C(=S)N(c2ccccc2)C1=O | > 200 |

Test system: Acinetobacter baumannii
Experiment: Antibacterial activity against Acinetobacter baumannii LMG 1025 after 24 hrs by broth microdilution method
Format: functional
Details: LMG 1025, 24 h

| Compound | MIC [µM] |
| --- | --- |
| O=C1NC(=S)NC(=O)C1=Cc1ccccc1[N+](=O)[O-] | > 200 |
| CN1C(=O)C(=CNc2ccccc2C(=O)O)C(=O)N(C)C1=O | > 200 |
| O=C1NC(=S)NC(=O)C1=CNc1ccccc1C(=O)O | > 200 |
| CN1C(=O)C(=Cc2ccccc2[N+](=O)[O-])C(=O)N(C)C1=O | > 200 |
| Nc1ccccc1NC=C1C(=O)NC(=S)NC1=O | > 200 |
| CC(NN)=C1C(=O)NC(=O)NC1=O | > 200 |
| CC(NN)=C1C(=O)N(c2ccccc2)C(=S)N(c2ccccc2)C1=O | > 200 |

Test system: NHDF
Experiment: Antiproliferative activity against NHDF at 30 uM after 72 hrs by MTT assay relative to control
Format: cell-based
Details: human

| Compound | Activity [%] |
| --- | --- |
| O=C1NC(=S)NC(=O)C1=Cc1ccccc1[N+](=O)[O-] | 81.31 |
| CN1C(=O)C(=CNc2ccccc2C(=O)O)C(=O)N(C)C1=O | 71.19 |
| O=C1NC(=S)NC(=O)C1=CNc1ccccc1C(=O)O | 79.11 |
| CN1C(=O)C(=Cc2ccccc2[N+](=O)[O-])C(=O)N(C)C1=O | 79.11 |
| Nc1ccccc1NC=C1C(=O)NC(=S)NC1=O | 70.13 |
| CC(NN)=C1C(=O)NC(=O)NC1=O | 82.68 |
| CC(NN)=C1C(=O)N(c2ccccc2)C(=S)N(c2ccccc2)C1=O | 86.68 |
